Measurements: US20130345257A1, “COMPOSITION FOR LUPUS NEPHRITIS AND METHODS OF MAKING AND USING THE SAME” (The Regents of the University of California, priority 2012, published 2013)
“Also recorded” adds a separate entry of the source.

Tests used:
Assay type in all cases: in vivo, mouse
spleen cell subsets [1] = assay: Spleen cell subsets of treated BWF1 mice by flow cytometry; settings: for Frequency of cells ± SEM: CD4+ / Frequency of cells ± SEM: CD8+ / Frequency of cells ± SEM: CD11b^+Ly6C^+Ly6G+ / Frequency of cells ± SEM: CD11b^+Ly6C^+Ly6G− / Frequency of cells ± SEM: CD11b^+MDSC−(Mφ) / Frequency of cells ± SEM: CD11c^+CD11b+(DC) / Frequency of cells ± SEM: CD11c^+CD11b− (DC) / Frequency of cells ± SEM: CD4^+CD25^+Foxp3^+ / Frequency of cells ± SEM: CD19+: spleen, LAQ 25 mg/kg, MMF 100 mg/kg
[2] = test system: BWF1 mice with anti-dsDNA and low proteinuria (PU^lo); assay: Therapeutic treatment of BWF1 mice with anti-dsDNA and low proteinuria (PU^lo); settings: LAQ 25 mg/kg, MMF 100 mg/kg
Experimental: (§1) Therapeutic Groups: a low proteinuria group)(PU^lo) consisted of mice with IgG anti-dsDNA detectable in serum and proteinuria ≦100 mg/dL, and a high proteinuria group (PU^hi) had proteinuria ≧300 mg/dL.
(§2) Proteinuria was evaluated weekly using Albustix (Siemens), serum creatinine using a commercial kit (Arbor Assays) and anti-dsDNA IgG antibodies by ELISA as described previously (10). See, e.g., FIGS. 1 and 2.
(§3) Kidney specimens of BWF1 mice (37 weeks of age in the prevention group or 7 and 11 weeks after institution of early or late therapies) were embedded in OCT compound and snap frozen. 4-5 μm an sections were air-dried, fixed with cold acetone and incubated with blocking buffer (anti-CD16/CD32 (1/50), 2% normal goat or rat serum, 2% BSA).
(§4) Histological analysis of glomerular pathology was done by an investigator blinded to treatment group and included acute inflammatory features (endocapillary hypercellularity, mesangial hypercellularity, cellular necrosis, cellular crescents, and interstitial inflammation), and chronic features (global glomerulosclerosis (GS), focal segmental glomerulosclerosis (FSGS), and interstitial fibrosis or tubular atrophy (IF/TA)). […] The weighted total score of the clinical features was based on this formula: [endocapillary hypercellularity+mesengial hypercellularity+(cellular necrosis*2)+(cellular crescents*2)+interstitial inflammation)/5]+(GS+FSGS+IFTA)/3, with maximum score 5.2. A minimum of 25 glomeruli, of at least 10 mice per group, were scored. Scores from each individual mouse were added and averaged to yield the glomerulonephritis score.

[3] = test system: leukocyte subsets present in kidney; assay: Leukocyte subsets in kidney of treated BWF1 mice by flow cytometry; set-up: Frequency of cells ± SEM: CD11c^+CD11b− (DC) / Frequency of cells ± SEM: CD11b^+Ly6C^+Ly6G− / Frequency of cells ± SEM: CD11b^+Ly6C^+Ly6G+ / Frequency of cells ± SEM: CD4+ / Frequency of cells ± SEM: CD8+ / Frequency of cells ± SEM: CD11b^+MDSC−(Mφ) / Frequency of cells ± SEM: CD11c^+CD11b+(DC): unit not given here; settings: kidney, LAQ 25 mg/kg, MMF 100 mg/kg; for Frequency of cells ± SEM: CD19+: in % (unit assumed)
Experimental: (§5) Single cell suspensions of splenocytes or kidney cells were prepared using cell strainers (Fisher), followed by red blood cell lysis. Kidney lymphocytes were separated from connective tissue by centrifugation (15 minutes at 400g) in 30% Percoll (GE Healthcare). CD4^+CD25^− cells from spleen and kidney were isolated using the CD4^+CD25^+ regulatory T cell isolation kit according to manufacturer's protocol (Miltenyi). CD11b+ cells were isolated using EasySep mouse CD11b positive selection kit (StemCell Technologies), surface stained for Ly6C and Ly6G prior to sorting myeloid-derived suppressor cells (MDSC) using FACSAria II. Populations were >95% pure by FACS analysis.
(§6) Single-cell suspensions from spleen or kidneys were stained for extracellular markers for 20 min at 4° C. in PBS/1% FBS. Intracellular staining for Foxp3 and cytokines was performed using the Foxp3 Fixation/Permeabilization kit according to the manufacturer's protocol (eBioscience). Cells were acquired on a FACS LSR II (BD) and data was analyzed using Flowjo (Tree Star).

[4] = test system: BWF1 mice with high proteinuria (PU^hi); assay: Therapeutic treatment of BWF1 mice after clinical nephritis / high proteinuria (PU^hi)
Experimental: as §1, §2, §3, §4

spleen cell subsets [5] = assay: Spleen cell subsets of treated BWF1 mice by flow cytometry
Excerpt: Water-gavaged mice constituted the control untreated animals. The spleen cell subsets were identified by the expression of cell surface markers at age 32 weeks as follow: iTregs; nTregs; MΦ: CD11b^−CD103^−; MΦ^2: CD11b^+Ly6C^hiGr-1^−; MΦ^3: CD11b^+Ly6C^intGr-1^−; Gr-1: CD11b ly6C^intGr-1^+; DC: CD11c^+CD103^+; T2: CD19^+CD23^+CD21^+IgM^hi; MZ: CD19^+CD23^−CD21^+IgM^hi. Abbreviations: iTregs=induced T regulatory cells (Tregs). nTregs=natural Tregs. T2=transitional 2 B cells. MZ=marginal zone B cells. MΦ=macrophages. Gr1=granulocytes. Values are mean±SEM. The statistical significance between the groups was determined by analysis of variance (-A-NOVA). ^AP<0.05 versus untreated controls.
as §5, §6

[6] = spleen at age 32 weeks, oral gavage from age 11 weeks, LAQ 25 mg/kg 3 days per week, MMF 100 mg/kg 5 days/week
[7] = spleen at age 32 weeks, oral gavage from age 11 weeks, LAQ 25 mg/kg 3 days per week, MMF 100 mg/kg 5 days/week, in % (unit assumed)
[8] = Preventive, 25 weeks after treatment
[9] = Preventive, 25 weeks after treatment, in % (unit assumed)
[10] = Therapeutic (PU^lo), 10 wks after initiation of therapy
[11] = Therapeutic (PU^lo), 10 wks after initiation of therapy, in % (unit assumed)

COc1c(C)c2c(c(O)c1C/C=C(\C)CCC(=O)OCCN1CCOCC1)C(=O)OC2 [MMF, mycophenolate mofetil, reference compound]
Numbers of MM (splenic PBMC) (spleen cell subsets [1]; mouse, in vivo): not
Frequency of cells ± SEM: CD11b^+CD103^− (MΦ^1) (spleen cell subsets [1]; [6]): 2.26 ± 0.25^A
Frequency of cells ± SEM: CD11b^+Ly6C^intGr-1^− (MΦ^3) (spleen cell subsets [1]; [6]): 23.44 ± 1.89
Frequency of cells ± SEM: CD11c^+CD103^+ (DC) (spleen cell subsets [1]; [6]): 0.48 ± 0.04^A
Frequency of cells ± SEM: CD19^+CD23^+CD21^+IgM^hi (T2) (spleen cell subsets [1]; [7]): 36.56 ± 4.92
Frequency of cells ± SEM: CD4+ (spleen cell subsets [1]; [8]): 26.2 ± 1.3
Frequency of cells ± SEM: CD8+ (spleen cell subsets [1]; [8]): 12.4 ± 0.9
Frequency of cells ± SEM: CD11b^+Ly6C^+Ly6G+ (spleen cell subsets [1]; [8]): 15. ± 1.6
Frequency of cells ± SEM: CD11b^+Ly6C^+Ly6G− (spleen cell subsets [1]; [8]): 33.4 ± 1.8
Frequency of cells ± SEM: CD11b^+MDSC−(Mφ) (spleen cell subsets [1]; [8]): 59.3 ± 2.3
Frequency of cells ± SEM: CD11c^+CD11b+(DC) (spleen cell subsets [1]; [8]): 1.0 ± 0.1
Frequency of cells ± SEM: CD11c^+CD11b− (DC) (spleen cell subsets [1]; [8]): 4.4 ± 0.3
Frequency of cells ± SEM: CD4^+CD25^+Foxp3^+ (spleen cell subsets [1]; [9]): 7.9 ± 0.4
Frequency of cells ± SEM: CD19+ (spleen cell subsets [1]; [9]): 57.4 ± 3.9
Frequency of cells ± SEM: CD4+ (spleen cell subsets [1]; [10]): 20.1 ± 0.7
Frequency of cells ± SEM: CD8+ (spleen cell subsets [1]; [10]): 13.5 ± 2.1
Frequency of cells ± SEM: CD11b^+Ly6C^+Ly6G+ (spleen cell subsets [1]; [10]): 17.5 ± 2.4
Frequency of cells ± SEM: CD11b^+Ly6C^+Ly6G− (spleen cell subsets [1]; [10]): 30.4 ± 2.7
Frequency of cells ± SEM: CD11b^+MDSC−(Mφ) (spleen cell subsets [1]; [10]): 40.5 ± 3.1
Frequency of cells ± SEM: CD11c^+CD11b+(DC) (spleen cell subsets [1]; [10]): 0.9 ± 0.2
Frequency of cells ± SEM: CD11c^+CD11b− (DC) (spleen cell subsets [1]; [10]): 4.1 ± 0.7
Frequency of cells ± SEM: CD4^+CD25^+Foxp3^+ (spleen cell subsets [1]; [11]): 3.2 ± 0.8
Frequency of cells ± SEM: CD19+ (spleen cell subsets [1]; [11]): 45.4 ± 3.3
Anti-dsDNA ([2]; PU^lo arm): not significantly decreased
Increase of proteinuria ([2]; PU^lo arm): prevented increased proteinuria
Rise in serum creatinine ([2]; PU^lo arm): prevented
Survival ([2]; PU^lo arm): significantly prolonged survival
Reduction of endo-capillary hypercellularity, interstitial inflammation, and focal segmental glomerulosclerosis ([2]; PU^lo mice): equally effective
Frequency of cells ± SEM: CD4+ [3, 8]: 19.4 ± 0.4
Frequency of cells ± SEM: CD8+ [3, 8]: 8.8 ± 0.1
Frequency of cells ± SEM: CD11b^+Ly6C^+Ly6G+ [3, 8]: 1.6 ± 0.2
Frequency of cells ± SEM: CD11b^+Ly6C^+Ly6G− [3, 8]: 22.9 ± 0.8
Frequency of cells ± SEM: CD11b^+MDSC−(Mφ) [3, 8]: 49.8 ± 0.7
Frequency of cells ± SEM: CD11c^+CD11b+(DC) [3, 8]: 1.0 ± 0.1
Frequency of cells ± SEM: CD11c^+CD11b− (DC) [3, 8]: 4.4 ± 0.3
Frequency of cells ± SEM: CD19+ [3, 8]: 2.3 ± 0.2
Frequency of cells ± SEM: CD4+ [3, 10]: 1.0 ± 0.1
Frequency of cells ± SEM: CD8+ [3, 10]: 6.6 ± 0.2
Frequency of cells ± SEM: CD11b^+Ly6C^+Ly6G+ [3, 10]: 1.9 ± 0.3
Frequency of cells ± SEM: CD11b^+Ly6C^+Ly6G− [3, 10]: 22.4 ± 0.3
Frequency of cells ± SEM: CD11b^+MDSC−(Mφ) [3, 10]: 45.7 ± 0.9
Frequency of cells ± SEM: CD11c^+CD11b+(DC) [3, 10]: 0.6 ± 0.0
Frequency of cells ± SEM: CD11c^+CD11b− (DC) [3, 10]: 1.3 ± 0.1
Frequency of cells ± SEM: CD19+ [3, 10]: 7.2 ± 0.4
Animals with proteinuria reduced to levels below 300 mg/dL ([4]; PU^hi arm, after 8 weeks of treatment, LAQ 25 mg/kg, MMF 100 mg/kg): approximately 25%
FSGS and IF/TA histology scores ([4]; PU^hi arm, compared to controls): significantly lower
Survival ([4]; treated after clinical nephritis / PU^hi, LAQ 25 mg/kg 3 times a week, MMF 100 mg/kg 5 times a week, vs water): not observed
Percentage of CD8^+ cells in spleen (spleen cell subsets [5]; compared to the control mice): decreased; also recorded: reduced
Frequency of cells ± SEM: CD11b^+Ly6C^hiGr-1^− (MΦ^2) (spleen cell subsets [5]; [6]): 11.81 ± 1.58
Frequency of cells ± SEM: CD11b^+Ly6C^intGr-1^+ (Gr-1) (spleen cell subsets [5]; [6]): 25.01 ± 5.32
Frequency of cells ± SEM: CD 19^+ (spleen cell subsets [5]; [7]): 57.38 ± 3.89
Frequency of cells ± SEM: CD19^+CD23^−CD21^+IgM^hi (MZ) (spleen cell subsets [5]; [7]): 3.78 ± 0.99
Percentage of CD4^+ T cells in spleen (spleen cell subsets [5]; vs control mice): decreased; also recorded: significantly lower percentage
